Several values for one entry are separate records, joined by “and”; a condition that tells them apart may be missing. Identical values can stand only once.
How the values were obtained:
PD-L1 = PD-L1 (Homo sapiens, UniProt Q9NZQ7); assay: Saturation binding assay on human PD-L1 transduced PC3 cells (assay buffer with 2.5% BSA); parameters: expressed in transfected cells; host or cells: PC3 cells transduced with human PD-L1 (PC3-PD-L1); settings: for Kd: human PD-L1 transduced PC3 cells, on ice 90 min, PBS + 2.5% w/v BSA; for Bmax: saturation binding, pmol/mg protein, PC3 PD-L1 cells
[1] = test system: PC3 PD-L1 overexpressing and PD-L1-mock tumors; assay: PET imaging in NMRI-nude mice bearing PC3 PD-L1 and PC3 mock tumors; format: in vivo; settings: for reduction of PD-L1 positive tumor uptake under blocking conditions / reduction of liver uptake under blocking conditions / contrast of PD-L1 positive tumor SUVmax over mock tumor: 1–2 h p.i.; for reduction of PD-L1 positive tumor uptake under blocking conditions / reduction of liver uptake under blocking conditions: 500 nmol unlabeled compound; for contrast of PD-L1 positive tumor SUVmax over mock tumor: percent higher than mock tumor; for excretion pattern / clearance route in PET / SUVmax PC3 PD-L1 tumor, blocking / SUVmax PC3 mock tumor, blocking / SUVmax kidney, blocking / SUVmax liver, blocking / SUVmax PC3 PD-L1 tumor / SUVmax PC3 mock tumor / SUVmax kidney / SUVmax liver: mice; for excretion pattern / clearance route in PET: PET 0–25 h p.i.; for SUVmax PC3 PD-L1 tumor / SUVmax PC3 mock tumor / SUVmax kidney / SUVmax liver: tracer only, i.v.
Description: Male athymic NMRI-nude mice (Rj:NMRI-Foxn1nu, Janvier Labs, Le Genest-Saint-Isle, France) aged between 8 to 16 weeks were employed for the study. General anesthesia was induced [~ 10% desflurane (Baxter, Deerfield, IL, USA) in 30 vol% oxygen + air] under controlled warming (37°C), and mice were subcutaneously injected with 3–5 × 10^6 PC3 PD-L1 and PC3 mock cells (in 50 µL PBS + 50 µL Matrigel, Corning, Glendale, CA, USA) into the right and left thigh, respectively. The growth of tumors was systematically monitored three times per week through caliper measurements, and animals with tumor sizes above 7 mm were included in the subsequent experiments.
PET and X-ray computed tomography (CT) scans were conducted under general anesthesia using a small animal nanoScan PET/CT scanner (Mediso, Budapest, Hungary), capable of imaging four animals simultaneously. CT images served attenuation correction and anatomical referencing. A total of three individual scans were conducted, corresponding to the timeframes of 0–2 h (dynamic reconstruction), 4–5 h, and 24–25 h (one frame reconstruction) after injection.
The PD-L1 radiotracer candidates (in 300 µL sterile 0.9% NaCl/HEPES buffer, pH 6–7, containing between 7 and 12 MBq, with molar activities exceeding 12 GBq/µmol) were intravenously delivered over 30 s through a catheter in the lateral tail vein. The PET acquisition was initiated simultaneously with the administration.
The acquired three-dimensional list mode data were sorted and binned within a 400–600 keV energy window, forming […] (15 × 10 s, 5 × 30 s, 5 × 60 s, 4 × 300 s, 3 × 600 s, 3 × 1200 s). Reconstruction of the time frames was accomplished using the Tera-TomoTM 3D algorithm, utilizing a voxel size of 0.4 mm and applying corrections for decay, scatter, and attenuation. The images were subjected to post-processing and analysis using Rover software (ABX GmbH, Radeberg, Germany), and were depicted as maximum intensity projections (MIPs) at the specified timepoints and scaling.
Three-dimensional volumes of interest were defined using fixed thresholding at 35–40% of the maximal measured intensity. Standardized uptake values (SUV = [MBq detected activity/mL tissue] / [MBq injected activity/g body weight], in mL/g) were then calculated within the selected volumes of interest, encompassing PD-L1 and mock tumors, as well as metabolizing organs.

[2] = Proteolytic stability in human serum at 37 °C, radio-HPLC; format: in vitro ADME; settings: 48 h
Description: For proteolytic stability studies, a solution of the radiolabeled compound was diluted with human serum in a ratio of 1:10. This mixture then underwent incubation at 37 °C while being shaken at 300 rpm. At each designated timepoint (1, 24 and 48 h), an aliquot was withdrawn and added to a detergent solution (water with 20% v/v EtOH, 5% v/v 5 mM aqueous EDTA, 0.5% v/v Triton X-100, 0.1% m/v saponin, 0.05% v/v 0.5 mM aqueous o-phenanthroline) in a ratio of 1:2 for precipitation of serum proteins. The mixture was cooled on ice for 5 min, followed by centrifugation at 12,000 g for 5 min. A minor portion of the resulting supernatant was subjected to analytical radio-HPLC (reversed-phase, Phenomenex Jupiter 300 C-18, 5 µm, 4.6 × 250 mm) with 10–95% acetonitrile (0.1% TFA) in water (0.1% TFA) in a linear gradient over 15 min, 1 mL/min, γ-detection). The assessment and graphical representations were performed using OriginPro® 9.0.

[3] = test system: PC3 PD-L1 and PC3 mock cells; assay: In vitro cell uptake in PC3 PD-L1 and PC3 mock cells; format: cell-based, human; settings: for incubation time at which cell uptake plateaued: PC3 cells, incubation 30–240 min at or close to KD; for uptake/binding to PC3 PD-L1-positive cells vs PC3 mock cells: mixed-effects model, main effect of cell type
Description: Both the target-positive (PC3 PD-L1) and negative cells (PC3 mock) were seeded at ~60,000 cells per well two days prior to the experiment. At the time of experiment, cells were then incubated with the respective radioligand at or close to the KD (determined by saturation binding) in binding buffer. For each timepoint and radiotracer (30, 60, 120 and 240 min), a single plate was used (with triplicate measurements). Additional controls per plate included plastic retention, nonspecific binding [excess of unlabeled BMS-1166 (in DMSO, resulting in 0.03% v/v) for both PC3 PD-L1 and PC3 mock] and cells incubated with PBS only (protein control). Following incubation, cells were washed twice in ice-cold binding buffer, lysed in 500 μL of 0.1 M NaOH + 1% SDS and radioactivity was measured in a gamma counter (Perkin Elmer Wizard 1480) and decay corrected to a reference time (end of radiolabeling).
Protein content was determined for each timepoint and cell type by BCA assay.
Figure S27: Cell uptake (fmol/mg protein) of [64Cu]Cu-14&16 into either PC3 PD-L1 or PC3 mock cells. Uptake of both […]
effects model. Binding to PC3 mock cells is similar to that of PC3 PD-L1 and PC3 mock cells blocked with an excess of […]

[4] = tracer +500 nM respective unlabeled compound (injected 5 min prior), 1-2 hour p.i.
[5] = tracer +500 nM respective unlabeled compound, 1-2 hour p.i.
[6] = tracer +500 nM respective unlabeled compound, 4-5 hour p.i.
[7] = tracer +500 nM respective unlabeled compound, 24-25 hour p.i.
[8] = 1-2 hour p.i., listed as [64Cu]Cu-14
[9] = 4-5 hour p.i., listed as [64Cu]Cu-14
[10] = 1-2 hour p.i., listed as [64Cu]Cu-16

Chain of PD-L1 (Q9NZQ7 19-290): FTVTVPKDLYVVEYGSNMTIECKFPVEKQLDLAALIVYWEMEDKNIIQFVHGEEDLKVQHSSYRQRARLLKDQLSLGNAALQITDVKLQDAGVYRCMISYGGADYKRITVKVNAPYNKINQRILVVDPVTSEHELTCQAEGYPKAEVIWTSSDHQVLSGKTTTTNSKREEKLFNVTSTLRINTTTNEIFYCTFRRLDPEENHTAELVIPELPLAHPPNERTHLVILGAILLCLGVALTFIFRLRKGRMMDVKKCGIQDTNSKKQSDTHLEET

In the case of Cc1c(COc2cc(OCc3cncc(S(C)(=O)=O)c3)c(CN[C@@H](CS(=O)(=O)O)C(=O)NCCS(=O)(=O)O)cc2Br)cccc1-c1cccc(OCc2cn(CCCN3CCN(C(=O)[C@H](CS(=O)(=O)O)NC(=O)CC[C@H](C(=O)[O-])N4CCN(CC(=O)[O-])CCN(CC(=O)[O-])CC4)CC3)nn2)c1C.[64Cu+2] [[^64Cu]Cu-14], the Kd (PD-L1) is reported as 0.1 µM, the Bmax (PD-L1) is reported as 2.40 pmol/mg and 2.40 ± 0.48 pmol/mg and the “reduction of PD-L1 positive tumor uptake under blocking conditions” value [1] is reported as 13%. For the same compound, the “reduction of liver uptake under blocking conditions” value [1] was 63%, the “contrast of PD-L1 positive tumor SUVmax over mock tumor” value [1] was 99% and the “excretion pattern / clearance route in PET” value [1] was “favorable renal clearance”. The “SUVmax PC3 PD-L1 tumor, blocking” value [1, 4] was 1.48 ± 0.44, the “SUVmax PC3 PD-L1 tumor, blocking” value ([1]; tracer +500 nM respective unlabeled compound (injected 5 min prior), 1-2 hour p.i., listed as [64Cu]Cu-14) was 1.48 and the “SUVmax PC3 mock tumor, blocking” value [1, 5] was 1.19. For the same compound, the “SUVmax kidney, blocking” value [1, 5] was 32.81, the “SUVmax liver, blocking” value [1, 5] was 1.25 ± 0.13 and the “SUVmax liver, blocking” value ([1]; tracer +500 nM respective unlabeled compound, 1-2 hour p.i., listed as [64Cu]Cu-14) was 1.25. For the same compound, the “SUVmax PC3 PD-L1 tumor, blocking” value [1, 6] was 0.78, the “SUVmax PC3 mock tumor, blocking” value [1, 6] was 0.48 and the “SUVmax kidney, blocking” value [1, 6] was 0.88. For the same compound, the “SUVmax liver, blocking” value [1, 6] was 0.98, the “SUVmax PC3 PD-L1 tumor, blocking” value [1, 7] was 1.53 and the “SUVmax PC3 mock tumor, blocking” value [1, 7] was 1.05. The “SUVmax kidney, blocking” value [1, 7] was 0.44, the “SUVmax liver, blocking” value [1, 7] was 0.99 and the “SUVmax PC3 PD-L1 tumor” value ([1]; 1-2 hour p.i.) was 1.71 ± 0.04. The “SUVmax PC3 mock tumor” value ([1]; 1-2 hour p.i.) was 0.86 ± 0.16, the SUVmax kidney ([1]; 1-2 hour p.i.) was 22.8 ± 3.0 and the SUVmax liver ([1]; 1-2 hour p.i.) was 3.41 ± 0.19. For the same compound, the “SUVmax PC3 PD-L1 tumor” value [1, 8] was 1.71, the “SUVmax PC3 mock tumor” value [1, 8] was 0.86 and the SUVmax kidney [1, 8] was 22.77. The SUVmax liver [1, 8] was 3.41, the “SUVmax PC3 PD-L1 tumor” value ([1]; 4-5 hour p.i.) was 1.26 and the “SUVmax PC3 mock tumor” value ([1]; 4-5 hour p.i.) was 0.50. It also gave an SUVmax kidney ([1]; 4-5 hour p.i.) of 0.72 ± 0.24, an SUVmax liver ([1]; 4-5 hour p.i.) of 1.54 ± 0.19 and an SUVmax kidney [1, 9] of 0.72. The SUVmax liver [1, 9] was 1.54, the “SUVmax PC3 PD-L1 tumor” value ([1]; 24-25 hour p.i.) was 1.52 and the “SUVmax PC3 mock tumor” value ([1]; 24-25 hour p.i.) was 1.49. The SUVmax kidney ([1]; 24-25 hour p.i.) was 0.63, the SUVmax liver ([1]; 24-25 hour p.i.) was 1.41 and the “intact radioligand after incubation in human serum” value [2] was “over 95%”. The “incubation time at which cell uptake plateaued” value [3] was 60 min, the “incubation time at which cell uptake plateaued” value ([3]; listed as [64Cu]Cu-14) was ≤ 60 min and the “uptake/binding to PC3 PD-L1-positive cells vs PC3 mock cells” value ([3]; listed as [64Cu]Cu-14) was “significant main effect of target expression”.
In the case of Cc1c(COc2cc(OCc3cncc(S(C)(=O)=O)c3)c(CN[C@@H](CS(=O)(=O)O)C(=O)NCCS(=O)(=O)O)cc2Br)cccc1-c1cccc(OCc2cn(CCCN3CCN(C(=O)[C@H](CS(=O)(=O)O)NC(=O)CCCC(=O)NC45CNCCNCC(N)(CNCCNC4)CNCCNC5)CC3)nn2)c1C.[64Cu+2] [[^64Cu]Cu-16], the Kd (PD-L1) is reported as 0.265 ± 0.0125 µM, the Bmax (PD-L1) is reported as 3.30 pmol/mg and 3.30 ± 0.46 pmol/mg and the “reduction of PD-L1 positive tumor uptake under blocking conditions” value [1] is reported as 10%. The “reduction of liver uptake under blocking conditions” value [1] was 74%, the “contrast of PD-L1 positive tumor SUVmax over mock tumor” value [1] was 107% and the “excretion pattern / clearance route in PET” value [1] was “clearance via the renal pathway”. For the same compound, the “SUVmax PC3 PD-L1 tumor, blocking” value [1, 4] was 1.45 ± 0.06, the “SUVmax PC3 PD-L1 tumor, blocking” value ([1]; tracer +500 nM respective unlabeled compound (injected 5 min prior), 1-2 hour p.i., listed as [64Cu]Cu-16) was 1.45 and the “SUVmax PC3 mock tumor, blocking” value [1, 5] was 0.90. For the same compound, the “SUVmax kidney, blocking” value [1, 5] was 7.93, the “SUVmax liver, blocking” value [1, 5] was 1.13 ± 0.04 and the “SUVmax liver, blocking” value ([1]; tracer +500 nM respective unlabeled compound, 1-2 hour p.i., listed as [64Cu]Cu-16) was 1.13. The “SUVmax PC3 PD-L1 tumor, blocking” value [1, 6] was 0.68, the “SUVmax PC3 mock tumor, blocking” value [1, 6] was 0.54 and the “SUVmax kidney, blocking” value [1, 6] was 1.28. For the same compound, the “SUVmax liver, blocking” value [1, 6] was 0.84, the “SUVmax PC3 PD-L1 tumor, blocking” value [1, 7] was 1.14 and the “SUVmax PC3 mock tumor, blocking” value [1, 7] was 1.01. The “SUVmax kidney, blocking” value [1, 7] was 1.02, the “SUVmax liver, blocking” value [1, 7] was 0.85 and the “SUVmax PC3 PD-L1 tumor” value ([1]; 1-2 hour p.i.) was 1.61 ± 0.93. For the same compound, the “SUVmax PC3 mock tumor” value ([1]; 1-2 hour p.i.) was 0.78 ± 0.36, the SUVmax kidney ([1]; 1-2 hour p.i.) was 16.2 ± 15.5 and the SUVmax liver ([1]; 1-2 hour p.i.) was 4.32 ± 0.02. For the same compound, the “SUVmax PC3 PD-L1 tumor” value [1, 10] was 1.61, the “SUVmax PC3 mock tumor” value [1, 10] was 0.78 and the SUVmax kidney [1, 10] was 16.18. The SUVmax liver [1, 10] was 4.32, the “SUVmax PC3 PD-L1 tumor” value ([1]; 4-5 hour p.i.) was 0.89 and the “SUVmax PC3 mock tumor” value ([1]; 4-5 hour p.i.) was 0.37. For the same compound, the SUVmax kidney ([1]; 4-5 hour p.i.) was 1.37, the SUVmax liver ([1]; 4-5 hour p.i.) was 2.49 and the “SUVmax PC3 PD-L1 tumor” value ([1]; 24-25 hour p.i.) was 1.47. For the same compound, the “SUVmax PC3 mock tumor” value ([1]; 24-25 hour p.i.) was 0.87, the SUVmax kidney ([1]; 24-25 hour p.i.) was 0.90 and the SUVmax liver ([1]; 24-25 hour p.i.) was 1.77 ± 0.08. The SUVmax liver ([1]; 24-25 hour p.i., listed as [64Cu]Cu-16) was 1.77, the “intact radioligand after incubation in human serum” value [2] was 89% and the “uptake/binding to PC3 PD-L1-positive cells vs PC3 mock cells” value ([3]; listed as [64Cu]Cu-16) was “significant main effect of target expression”.

Source: PMC10876507, “Chelator impact: investigating the pharmacokinetic behavior of copper-64 labeled PD-L1 radioligands” (EJNMMI Radiopharmacy and Chemistry, 2024)
